Measured values reported in ChEMBL document CHEMBL1795278, “Synthesis and evaluation of fluorescent heterocyclic aminoadamantanes as multifunctional neuroprotective agents” (Bioorg Med Chem, 2011).
pIC50: −log10 of the molar value.

Key:
[1] = Antagonist activity at VGCC in Sprague-Dawley rat brain synaptoneurosomes assessed as inhibition of Kcl-induced calcium flux at 100 uM after 5 mins using FURA-2AM by fluorescent spectrometer analysis relative to control; type: functional
[2] = Antagonist activity at NMDAR in Sprague-Dawley rat brain synaptoneurosomes assessed as inhibition of NMDA/glycine-induced calcium flux at 100 uM after 5 mins using FURA-2AM by fluorescent spectrometer analysis relative to control; type: functional
[3] = target: Nitric oxide synthase 1 (Rattus norvegicus, UniProt P29476); assay: Inhibition of nNOS in Sprague-Dawley rat brain homogenates assessed as conversion of oxyhemoglobin to methemoglobin measured for 10 mins by UV-visible spectrophotometer analysis; conditions: for pIC50: read-out: IC50
[4] = system: Radical scavenging activity; assay: Antioxidant activity assessed as inhibition of DPPH free radicals at 0.01 mM after 30 mins by UV-visible spectrophotometer analysis relative to control; type: functional
[5] = system: Radical scavenging activity; assay: Antioxidant activity assessed as inhibition of DPPH free radicals at 0.1 mM after 30 mins by UV-visible spectrophotometer analysis relative to control; type: functional
[6] = system: Radical scavenging activity; assay: Antioxidant activity assessed as inhibition of DPPH free radicals at 1 mM after 30 mins by UV-visible spectrophotometer analysis relative to control; type: functional
[7] = Antioxidant activity assessed as inhibition of ABTS free radicals at 0.01 mM after 30 mins by UV-visible spectrophotometer analysis relative to control; type: functional
[8] = Antioxidant activity assessed as inhibition of ABTS free radicals at 0.1 mM after 30 mins by UV-visible spectrophotometer analysis relative to control; type: functional
[9] = Antioxidant activity assessed as inhibition of ABTS free radicals at 1 mM after 30 mins by UV-visible spectrophotometer analysis relative to control; type: functional
[10] = system: Radical scavenging activity; assay: Antioxidant activity assessed as inhibition of DPPH free radicals after 30 mins by UV-visible spectrophotometer analysis relative to control; type: functional
[11] = Antioxidant activity assessed as inhibition of ABTS free radicals after 30 mins by UV-visible spectrophotometer analysis relative to control; type: functional

Sequence of Nitric oxide synthase 1 (P29476 whole entry): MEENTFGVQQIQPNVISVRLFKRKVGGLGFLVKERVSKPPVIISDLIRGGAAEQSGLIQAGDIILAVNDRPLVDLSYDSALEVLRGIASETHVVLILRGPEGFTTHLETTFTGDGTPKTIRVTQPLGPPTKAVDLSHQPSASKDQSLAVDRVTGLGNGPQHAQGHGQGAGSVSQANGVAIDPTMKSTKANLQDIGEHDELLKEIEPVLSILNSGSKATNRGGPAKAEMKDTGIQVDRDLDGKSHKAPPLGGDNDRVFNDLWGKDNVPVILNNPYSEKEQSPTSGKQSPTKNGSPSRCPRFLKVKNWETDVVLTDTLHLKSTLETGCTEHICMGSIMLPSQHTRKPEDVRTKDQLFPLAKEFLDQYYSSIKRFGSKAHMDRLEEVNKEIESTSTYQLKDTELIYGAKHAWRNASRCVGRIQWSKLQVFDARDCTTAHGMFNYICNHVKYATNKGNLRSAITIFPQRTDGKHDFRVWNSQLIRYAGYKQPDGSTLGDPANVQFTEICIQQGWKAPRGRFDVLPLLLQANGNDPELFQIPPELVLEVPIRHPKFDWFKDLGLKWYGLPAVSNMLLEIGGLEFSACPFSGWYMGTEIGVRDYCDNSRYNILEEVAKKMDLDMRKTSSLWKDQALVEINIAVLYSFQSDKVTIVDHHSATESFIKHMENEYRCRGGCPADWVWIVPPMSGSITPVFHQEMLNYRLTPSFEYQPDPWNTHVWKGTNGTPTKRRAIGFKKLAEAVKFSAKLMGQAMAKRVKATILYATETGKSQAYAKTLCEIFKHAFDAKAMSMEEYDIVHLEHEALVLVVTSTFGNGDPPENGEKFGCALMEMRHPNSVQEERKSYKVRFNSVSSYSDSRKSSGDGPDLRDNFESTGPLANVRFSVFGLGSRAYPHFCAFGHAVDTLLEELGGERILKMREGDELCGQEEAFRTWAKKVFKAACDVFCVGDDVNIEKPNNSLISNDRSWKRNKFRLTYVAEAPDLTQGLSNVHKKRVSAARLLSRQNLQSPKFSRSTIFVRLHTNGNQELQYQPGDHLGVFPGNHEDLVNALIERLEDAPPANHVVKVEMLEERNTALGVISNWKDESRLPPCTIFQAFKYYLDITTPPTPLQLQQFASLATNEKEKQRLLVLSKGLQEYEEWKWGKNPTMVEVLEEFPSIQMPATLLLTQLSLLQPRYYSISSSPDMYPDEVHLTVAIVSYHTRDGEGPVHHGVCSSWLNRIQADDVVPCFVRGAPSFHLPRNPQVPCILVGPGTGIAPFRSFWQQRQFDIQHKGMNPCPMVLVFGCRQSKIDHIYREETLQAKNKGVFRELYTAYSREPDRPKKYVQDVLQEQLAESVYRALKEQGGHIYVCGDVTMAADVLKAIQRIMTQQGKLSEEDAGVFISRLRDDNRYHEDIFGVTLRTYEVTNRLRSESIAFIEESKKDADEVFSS

Row | Structure (SMILES) | inhibition (INH) [1] | inhibition (INH) [2] | IC50 [3] | inhibition [4] | inhibition [5] | inhibition [6] | inhibition [7] | inhibition [8] | inhibition [9] | inhibition [10] | inhibition [11] | pIC50 [3]
1 | O=[N+]([O-])c1ccc(NC23CC4CC(CC(C4)C2)C3)c([N+](=O)[O-])c1 | 89.14% | 80.75% | Not Active | 32.1% | 36.8% | 37% | 8.21% | 9.73% | 15.7% | Dose-dependent effect | Dose-dependent effect | 
2 | COCCOC(=O)C1=C(C)NC(C)=C(C(=O)OC(C)C)C1c1cccc([N+](=O)[O-])c1 (stereo not given) [NIMODIPINE] | 12.29% |  |  |  |  |  |  |  |  |  |  | 
3 | N=C(N)NN [PIMAGEDINE] |  |  |  |  |  |  |  |  |  |  |  | 4.71
4 | Cc1c(C)c2c(c(C)c1O)CCC(C)(C(=O)O)O2 (stereo not given) |  |  |  | 45.8% | 74.6% | 95.1% | 47.6% | 62.8% | 88.5% | Dose-dependent effect | Dose-dependent effect | 
5 | NC12CC3CC(CC(C3)C1)C2 [AMANTADINE] | 86.13% | 83.1% | Not Active | 0.55% | 2.11% | 2.32% | 0.49% | 1.34% | 1.62% | Dose-dependent effect | Dose-dependent effect | 
6 | CN(C)c1cccc2c(S(=O)(=O)NC34CC5CC(CC(C5)C3)C4)cccc12 | 44.77% | 78.05% |  | 38% | 38.1% | 40.9% | 8.11% | 22.4% | 41.6% | Dose-dependent effect | Dose-dependent effect | 6.39
7 | O=C(NC12CC3CC(CC(C3)C1)C2)c1n[nH]c2ccccc12 | 93.43% | 83% |  | 28.7% | 30.1% | 32.9% | 12.4% | 21.7% | 39.9% | Dose-dependent effect | Dose-dependent effect | 
8 | c1ccc(CNC23OC4C5C6CC(C7C6C4C72)C53)cc1 (stereo not given) | 70.12% | 86.63% | Not Active | 0.2% | 5.99% | 9.98% | 2.44% | 7.33% | 8.88% | Dose-dependent effect | Dose-dependent effect | 
9 | O=C(NC12CC3CC(CC(C3)C1)C2)c1cc2ccccc2oc1=O | 75.35% | 79.71% |  | 31.8% | 69.8% | 91.7% | 87.5% | 91.8% | 93.3% | Dose-dependent effect | Dose-dependent effect | 6.07
10 | N#Cc1c2ccccc2cn1C12CC3CC(CC(C3)C1)C2 | 54.24% | 84.01% |  | 27.4% | 27.8% | 32.7% | 9.98% | 13.2% | 13.5% | Dose-dependent effect | Dose-dependent effect | 
11 | CNc1ccccc1C(=O)NC12CC3CC(CC(C3)C1)C2 | 93.2% | 96.66% |  | 42.7% | 42.8% | 44% | 10.7% | 24.3% | 50.5% | Dose-dependent effect | Dose-dependent effect | 
